In one data set the test system is MT4. Description: Cytotoxicity against human MT4 cells assessed as reduction in cell viability by CellTiter-Glo luminescence assay. The data set is classed as cell-based. Background: ATP-based viability assays read luminescence as a measure of living cells.
The test system of data set [1] is Human immunodeficiency virus 1. Description: Antiviral activity against HIV-1 NL4-3 infected in human MT4 cells assessed as reduction in p24 production treated at 48 hrs post-infection and measured on day 4 post-viral infection by ELISA. It is filed as functional, organism-based. The settings on record: Human immunodeficiency virus 1, NL4-3, MT4. For orientation: In an ELISA, binding on a coated surface is turned into a signal by an enzyme label.

Another data set concerns MCF7. Put plainly: Antiproliferative activity against human MCF7 cells assessed as reduction in cell viability measured after 72 hrs by SRB assay. The data set is classed as functional, cell-based. The following applies: MCF7, 72 h. In general terms: The SRB assay estimates cell density from bound dye.
The nature of data set [2]: Antiproliferative activity against human KB-VIN cells assessed as reduction in cell viability after 72 hrs by SRB assay. The data set is classed as functional, cell-based. The settings on record: KBVIN.
For the next data set, the system named is KB. Description: Antiproliferative activity against human KB cells assessed as reduction in cell viability measured after 72 hrs by SRB assay. It is filed as functional, cell-based.
Another data set deals with MDA-MB-231. Description: Antiproliferative activity against human MDA-MB-231 cells assessed as reduction in cell viability measured after 72 hrs by SRB assay. It is filed as functional, cell-based. The settings on record: MDA-MB-231, 72 h.
The next data set deals with A549. Description: Antiproliferative activity against human A549 cells assessed as reduction in cell viability measured after 72 hrs by SRB assay. The following applies: A549, 72 h.

Each structure is given as a SMILES string. Some results are limits rather than exact numbers.

The term IC50 denotes the concentration needed to halve the response being measured. Regarding `Cc1cn([C@H]2C[C@H](N=[N+]=[N-])[C@@H](CO)O2)c(=O)[nH]c1=O` [ZIDOVUDINE], in the data set on MT4, the CC75 is greater than 0.37 µM. Moreover, the IC50 in data set [1] turned out to be 0.0169 µM.

With `CCCCCCCCCCCCCCCCCCCC(=O)O[C@@H]1[C@@H](C)[C@@]2(O)[C@@H](C=C(CO)C[C@]3(O)C(=O)C(C)=C[C@@H]23)[C@@H]2C(C)(C)[C@]12OC(=O)CCCCCCCCCCCCCCCCCCC`, the IC50 (in the data set with MCF7; in data set [2]; in the data set with KB; with MDA-MB-231; in the data set on A549; in data set [1]) was greater than 10 µM throughout. Moreover, in the data set with MT4, the CC75 is greater than 5 µM.

As for `CC(=O)OCC1=C[C@H]2[C@@H]3C(C)(C)[C@]3(OC(C)=O)[C@H](OC(C)=O)[C@@H](C)[C@]2(O)[C@@H]2C=C(C)C(=O)[C@@]2(O)C1`, the IC50 (with MCF7; in data set [2]; in the data set on KB; with MDA-MB-231; with A549; in data set [1]) was greater than 10 µM each time. The CC75 with MT4 is greater than 5 µM.

For `C/C=C(/C)C(=O)O[C@]12C([C@@H]3C=C(CO)C[C@]4(O)C(=O)C(C)=C[C@H]4[C@@]3(O)[C@H](C)[C@H]1O)C2(C)C` (single isomer, unassigned), the IC50 (with MCF7; in data set [2]; with KB; with MDA-MB-231; in the data set with A549; in data set [1]) was greater than 10 µM in each case. Also, the CC75 with MT4 was greater than 5 µM.

For `CC1=C[C@H]2[C@@]3(O)[C@H](C)[C@@H](O)[C@]4(OC(=O)/C=C/c5ccccc5)C([C@@H]3C=C(CO)C[C@]2(O)C1=O)C4(C)C` (single isomer, unassigned), the IC50 (in the data set on MCF7; in data set [2]; in the data set with KB; with MDA-MB-231; in the data set on A549; in data set [1]) was greater than 10 µM throughout. Moreover, in the data set on MT4, the CC75 is greater than 5 µM.

`CCCC(=O)OCC1=C[C@H]2C3C(C)(C)[C@]3(OC(=O)CCC)[C@H](OC(=O)/C=C/c3ccccc3)[C@@H](C)[C@]2(O)[C@@H]2C=C(C)C(=O)[C@@]2(O)C1` (single isomer, unassigned): the IC50 in the data set on MCF7 is greater than 10 µM; in data set [2] it was greater than 10 µM; with KB, greater than 10 µM; in the data set on MDA-MB-231 it was 6.3 µM; in the data set with A549, 3.27 µM; in data set [1] it was 0.0733 µM. The CC75 with MT4 is greater than 5 µM.

Turning to `CCCC(=O)OCC1=C[C@H]2[C@@H]3C(C)(C)[C@]3(OC(=O)CCC)[C@H](OC(=O)/C=C/c3ccc(OC(C)=O)c(OC)c3)[C@@H](C)[C@]2(O)[C@@H]2C=C(C)C(=O)[C@@]2(O)C1`, the IC50 with MCF7 was 9.32 µM; in data set [2] it was 12.6 µM; in the data set with KB it was 8.54 µM; with MDA-MB-231, 6.06 µM; in the data set on A549 it was 3.71 µM; in data set [1] it was greater than 10 µM.

As to `CC1=C[C@H]2[C@@]3(O)[C@H](C)[C@@H](OC(=O)/C=C/c4ccccc4)[C@]4(OC(=O)/C=C/c5ccccc5)[C@H]([C@@H]3C=C(COC(=O)/C=C/c3ccccc3)C[C@]2(O)C1=O)C4(C)C`, the IC50 (with MCF7; in data set [2]; in the data set with KB; with MDA-MB-231; with A549; in data set [1]) was greater than 10 µM in each case. Besides, in the data set with MT4, the CC75 was greater than 5 µM.

As to `C/C=C/C(=O)OCC1=C[C@H]2C3C(C)(C)[C@]3(OC(=O)/C=C/C)[C@H](O)[C@@H](C)[C@]2(O)[C@@H]2C=C(C)C(=O)[C@@]2(O)C1` (single isomer, unassigned), the IC50 is greater than 10 µM in the data set with MCF7; greater than 10 µM in data set [2]; greater than 10 µM in the data set with KB; 6.7 µM with MDA-MB-231; 6.22 µM in the data set with A549; greater than 10 µM in data set [1]. The CC75 with MT4 is greater than 5 µM.

As to `CC(=O)O[C@@H]1[C@@H](C)[C@@]2(O)[C@@H](C=C(CO)C[C@]3(O)C(=O)C(C)=C[C@@H]23)[C@@H]2C(C)(C)[C@]12OC(C)=O`, the IC50 with MCF7 is greater than 10 µM; in data set [2] it was greater than 10 µM; in the data set on KB, greater than 10 µM; with MDA-MB-231, 8.91 µM; with A549, 7.49 µM; in data set [1] it was 1.36 µM. The CC75 with MT4 was greater than 10 µM.

As for `CCCC(=O)OCC1=C[C@H]2[C@@H]3C(C)(C)[C@]3(OC(=O)CCC)[C@H](O)[C@@H](C)[C@]2(O)[C@@H]2C=C(C)C(=O)[C@@]2(O)C1`, the CC75 with MT4 was greater than 5 µM.

Regarding `CC(=O)O[C@H]1C(=O)[C@@]2(C)[C@H]([C@H](OC(=O)c3ccccc3)[C@]3(O)C[C@H](OC(=O)[C@H](O)[C@@H](NC(=O)c4ccccc4)c4ccccc4)C(C)=C1C3(C)C)[C@]1(OC(C)=O)CO[C@@H]1C[C@@H]2O` [PACLITAXEL], the IC50 in the data set with MCF7 amounted to 0.015 µM; in data set [2], 2.54 µM; in the data set on KB, 0.008 µM; in the data set on MDA-MB-231, 0.008 µM.

Consider `C/C=C/C(=O)O[C@@H]1[C@@H](C)[C@@]2(O)[C@@H](C=C(CO)C[C@]3(O)C(=O)C(C)=C[C@@H]23)[C@@H]2C(C)(C)[C@]12OC(=O)/C=C/C`, for which the IC50 is greater than 10 µM in the data set on MCF7; greater than 10 µM in data set [2]; greater than 10 µM in the data set on KB; greater than 10 µM in the data set on MDA-MB-231; greater than 10 µM in the data set on A549; 0.408 µM in data set [1]. Further, the CC75 with MT4 is greater than 10 µM.

With `COc1cc(/C=C/C(=O)O[C@@H]2[C@@H](C)[C@@]3(O)[C@@H](C=C(CO)C[C@]4(O)C(=O)C(C)=C[C@@H]34)[C@@H]3C(C)(C)[C@]23OC(C)=O)ccc1O`, the IC50 is greater than 10 µM in the data set with MCF7; greater than 10 µM in data set [2]; greater than 10 µM in the data set with KB; greater than 10 µM with MDA-MB-231; greater than 10 µM in the data set with A549; 0.362 µM in data set [1]. Further, in the data set on MT4, the CC75 is greater than 5 µM.

`CC(=O)OCC1=C[C@H]2[C@@H]3C(C)(C)[C@]3(OC(C)=O)[C@H](O)[C@@H](C)[C@]2(O)[C@@H]2C=C(C)C(=O)[C@@]2(O)C1`: the CC75 in the data set on MT4 is greater than 5 µM.

In the case of `C/C=C/C(=O)O[C@]12C([C@@H]3C=C(CO)C[C@]4(O)C(=O)C(C)=C[C@H]4[C@@]3(O)[C@H](C)[C@H]1O)C2(C)C` (single isomer, unassigned), the IC50 (in the data set with MCF7; in data set [2]; in the data set on KB; with MDA-MB-231; with A549; in data set [1]) was greater than 10 µM throughout. Further, the CC75 in the data set on MT4 was greater than 5 µM.

As to `CC1=C[C@H]2[C@@]3(O)[C@H](C)[C@@H](O)[C@]4(OC(=O)CCc5ccccc5)C([C@@H]3C=C(CO)C[C@]2(O)C1=O)C4(C)C` (single isomer, unassigned), the IC50 in the data set on MCF7 was greater than 10 µM; in data set [2], greater than 10 µM; in the data set on KB it was greater than 10 µM; in the data set with MDA-MB-231, greater than 10 µM; in the data set on A549, greater than 10 µM; in data set [1] it was 5.46 µM. Further, the CC75 with MT4 was greater than 10 µM.

Take `CC/C=C/C/C=C/C/C=C/C/C=C/C/C=C/CCCC(=O)O[C@@H]1[C@@H](C)[C@@]2(O)[C@@H](C=C(CO)C[C@]3(O)C(=O)C(C)=C[C@@H]23)[C@@H]2C(C)(C)[C@]12OC(=O)CCC/C=C/C/C=C/C/C=C/C/C=C/C/C=C/CC`: the IC50 was greater than 10 µM in the data set on MCF7; greater than 10 µM in data set [2]; greater than 10 µM with KB; greater than 10 µM in the data set on MDA-MB-231; greater than 10 µM in the data set with A549; 0.11 µM in data set [1]. Further, the CC75 in the data set with MT4 is greater than 5 µM.

On to `CC/C=C/C/C=C/C/C=C/C/C=C/C/C=C/CCCC(=O)OCC1=C[C@H]2[C@@H]3C(C)(C)[C@]3(OC(=O)CCC/C=C/C/C=C/C/C=C/C/C=C/C/C=C/CC)[C@H](OC(=O)CCC/C=C/C/C=C/C/C=C/C/C=C/C/C=C/CC)[C@@H](C)[C@]2(O)[C@@H]2C=C(C)C(=O)[C@@]2(O)C1`, for which the IC50 in the data set on MCF7 was greater than 10 µM; in data set [2], greater than 40 µM; in the data set with KB it was greater than 40 µM; in the data set on MDA-MB-231, 10.1 µM; in the data set with A549, greater than 10 µM; in data set [1], greater than 10 µM. Further, the CC75 in the data set on MT4 is greater than 5 µM.

With `CC/C=C/C/C=C/C/C=C/C/C=C/C/C=C/CCCC(=O)OCC1=C[C@H]2[C@@H]3C(C)(C)[C@]3(OC(=O)CCC/C=C/C/C=C/C/C=C/C/C=C/C/C=C/CC)[C@H](O)[C@@H](C)[C@]2(O)[C@@H]2C=C(C)C(=O)[C@@]2(O)C1`, the IC50 in the data set with MCF7 is greater than 10 µM; in data set [2], greater than 10 µM; in the data set with KB, greater than 10 µM; in the data set on MDA-MB-231, greater than 10 µM; in the data set on A549 it was greater than 10 µM; in data set [1], 2.23 µM. Moreover, the CC75 in the data set on MT4 was greater than 5 µM.

In the case of `COc1cc(/C=C/C(=O)O[C@]23C([C@@H]4C=C(CO)C[C@]5(O)C(=O)C(C)=C[C@H]5[C@@]4(O)[C@H](C)[C@H]2O)C3(C)C)ccc1C(C)=O` (single isomer, unassigned), the IC50 (in the data set with MCF7; in data set [2]; in the data set on KB; in the data set on MDA-MB-231; in the data set with A549; in data set [1]) was greater than 10 µM each time. Further, the CC75 in the data set on MT4 is greater than 5 µM.

The values are drawn from ChEMBL document CHEMBL4808236, “New phorbol ester derivatives as potent anti-HIV agents” (Bioorg Med Chem Lett, 2021).
